The results in this text go back to patent US20240198287A1, “CARBON DIOXIDE RECOVERING METHOD AND CARBON DIOXIDE RECOVERING DEVICE” (MITSUBISHI GAS CHEMICAL COMPANY, INC., priority 2021, published 2024).

In general, pKa refers to the pH at which an ionisable group is half protonated. Low values mean a group that gives up its proton readily, high ones a group that holds its proton tightly.

The nature of the data set: Acid dissociation constant (pKa) by acid-base titration. The format is physicochemical. The settings on record: purified water; titration with 0.1 N perchloric acid-acetic acid solution, 25±2° C. The protocol: In the present description, the acid dissociation constant of the amine compound (a) is a value obtained by the following measurement method based on an acid-base titration method. • (1) Dissolving 0.2 g of the amine compound (a) in 30 mL of purified water. • (2) Calculating the acid dissociation constant (pKa) by titrating the solution obtained in the above (1) with 0.1 N perchloric acid-acetic acid solution using an automatic potentiometric titrator (for example, AT-610 produced by Kyoto Electronics Manufacturing Co., Ltd.).
Still, let a temperature at a time of measurement be 25±2° C.
The acid dissociation constant of the amine compound (a) was determined by the following method. • (1) Dissolving 0.2 g of the amine compound (a) in 30 mL of the purified water. • (2) Calculating the acid dissociation constant (pKa) by titrating the solution obtained in the above (1) with the 0.1 N perchloric acid-acetic acid solution using the automatic potentiometric titrator (AT-610 produced by Kyoto Electronics Manufacturing Co., Ltd.).
Still, let the temperature at the time of measurement be 25±2° C.

Compound `NCC1CCCC(CN)C1` (stereo not shown) [1,3-BAC, 1,3-bis(aminomethyl)cyclohexane] came in with a pKa of 10.8.
